Assay results published in US6972296B2, “Carboxylic acid derivatives that inhibit the binding of integrins to their receptors” (Encysive Pharmaceuticals Inc., priority 1999, dated 2005).

Biological target: T1, α4β1 integrin (Homo sapiens, UniProt P05556+P13612)
T1 construct: endogenous in cells; host or cells: Ramos cells
Assay: Adhesion of calcein-labeled Ramos cells to CS1 (fibronectin) peptide conjugated ovalbumin
Type: cell-based
Details: Ramos cell adhesion to CS1 conjugated ovalbumin
Procedure, shortened: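 Plates bearing CS1 fibronectin peptide coupled to ovalbumin (0.5 μg/ml coat, 3% BSA block) received calcein-labelled Ramos cells plus compound (100 μM stated) for 30 min at 37 °C. Buffer was TBS pH 7.5 with 1 mM Mg2+, Ca2+, Mn2+; bound cells quantified by fluorescence after lysis; […].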

[1] = Table 5, dose required to give 50% inhibition
[2] = Table 7, dose required to give 50% inhibition

T1 sequence (P13612 34-1032): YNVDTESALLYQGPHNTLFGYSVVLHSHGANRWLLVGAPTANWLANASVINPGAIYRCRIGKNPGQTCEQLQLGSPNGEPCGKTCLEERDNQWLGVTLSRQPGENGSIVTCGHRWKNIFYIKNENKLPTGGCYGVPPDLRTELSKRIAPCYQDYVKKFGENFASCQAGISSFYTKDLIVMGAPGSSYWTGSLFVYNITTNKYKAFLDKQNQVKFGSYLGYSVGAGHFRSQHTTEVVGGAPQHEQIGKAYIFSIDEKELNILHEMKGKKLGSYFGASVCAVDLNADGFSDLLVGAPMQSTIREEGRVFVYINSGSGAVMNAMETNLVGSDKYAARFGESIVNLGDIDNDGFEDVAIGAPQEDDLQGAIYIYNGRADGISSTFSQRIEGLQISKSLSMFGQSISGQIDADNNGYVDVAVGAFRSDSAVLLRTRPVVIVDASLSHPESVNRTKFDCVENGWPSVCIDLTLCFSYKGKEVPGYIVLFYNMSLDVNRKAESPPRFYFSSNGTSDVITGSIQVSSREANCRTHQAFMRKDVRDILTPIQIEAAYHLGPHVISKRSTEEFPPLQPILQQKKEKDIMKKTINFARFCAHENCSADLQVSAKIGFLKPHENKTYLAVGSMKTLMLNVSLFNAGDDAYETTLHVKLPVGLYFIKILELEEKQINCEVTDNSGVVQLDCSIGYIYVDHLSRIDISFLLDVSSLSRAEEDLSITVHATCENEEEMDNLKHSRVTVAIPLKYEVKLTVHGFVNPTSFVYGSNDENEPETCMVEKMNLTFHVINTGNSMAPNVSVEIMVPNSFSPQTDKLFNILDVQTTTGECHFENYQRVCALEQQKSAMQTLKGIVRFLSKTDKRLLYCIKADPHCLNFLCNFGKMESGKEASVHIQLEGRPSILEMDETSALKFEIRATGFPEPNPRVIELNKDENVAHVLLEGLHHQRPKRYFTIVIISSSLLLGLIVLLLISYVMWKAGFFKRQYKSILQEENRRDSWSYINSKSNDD
T1 sequence (P05556 21-798): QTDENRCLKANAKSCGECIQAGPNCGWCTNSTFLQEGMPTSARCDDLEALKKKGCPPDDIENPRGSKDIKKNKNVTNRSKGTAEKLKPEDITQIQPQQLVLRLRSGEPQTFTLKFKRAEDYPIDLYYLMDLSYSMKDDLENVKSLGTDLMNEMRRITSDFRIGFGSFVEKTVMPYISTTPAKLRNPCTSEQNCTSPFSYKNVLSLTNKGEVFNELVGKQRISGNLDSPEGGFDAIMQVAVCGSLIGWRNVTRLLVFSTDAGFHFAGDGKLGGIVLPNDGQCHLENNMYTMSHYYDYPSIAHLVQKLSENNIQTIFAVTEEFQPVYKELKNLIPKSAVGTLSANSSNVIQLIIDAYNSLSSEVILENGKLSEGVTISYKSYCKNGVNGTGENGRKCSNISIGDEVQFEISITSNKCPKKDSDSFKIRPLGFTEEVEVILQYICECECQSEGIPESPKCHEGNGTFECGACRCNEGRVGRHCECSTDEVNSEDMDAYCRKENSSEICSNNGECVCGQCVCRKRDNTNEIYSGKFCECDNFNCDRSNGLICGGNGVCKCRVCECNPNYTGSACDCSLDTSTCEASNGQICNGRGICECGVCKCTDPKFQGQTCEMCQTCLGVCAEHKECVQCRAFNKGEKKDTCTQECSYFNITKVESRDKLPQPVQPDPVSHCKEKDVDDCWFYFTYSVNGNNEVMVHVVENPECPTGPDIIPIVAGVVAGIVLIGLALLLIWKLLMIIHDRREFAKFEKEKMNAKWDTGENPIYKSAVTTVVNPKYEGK

CCOc1ccc([C@H](CC(=O)O)NC(=O)Nc2c(O)c3ccccc3n(Cc3ccccc3Cl)c2=O)cc1OCC
IC50 (Table 6, 30 minutes at 37° C.): 4 nM

COc1cccc(Cl)c1Cn1ccc(O)c(NC(=O)N[C@@H](CC(=O)O)c2cccc(C)c2)c1=O [(3S)-3-[({[1-(2-chloro-6-methoxybenzyl)-4-hydroxy-2-oxo-1,2-dihydropyridin-3-yl]amino}carbonyl)amino]-3-(3-methylphenyl)propanoic acid]
IC50 [1]: 5 nM

COCCOCCOCCOc1ccn(Cc2ccccc2Cl)c(=O)c1NC(=O)N[C@@H](CC(=O)O)c1ccc(C)cc1
IC50 (Table 3, 30 minutes at 37° C.): 2 nM

Cc1ccc(C[C@H](CC(=O)O)NC(=O)Nc2c(O)ccn(Cc3ccccc3Cl)c2=O)cc1
IC50 [1]: 150 nM

Cc1cn(Cc2ccccc2Cl)c(=O)c(NC(=O)N[C@@H](CC(=O)O)c2cccc(OCC(F)(F)F)c2)c1O
IC50 (Table 6, 30 minutes at 37° C.): 15 nM

O=C(O)C[C@H](NC(=O)Nc1cccn(Cc2ccc(F)cc2)c1=O)c1ccc2c(c1)OCO2
IC50 (Table 4, 30 minutes at 37° C.): 2000 nM

Cc1ccc([C@H](CC(=O)O)NC(=O)Nc2cn(Cc3ccccc3Cl)ccc2=O)cc1
IC50 (Table 4, 30 minutes at 37° C.): 100 nM

O=C(O)C[C@H](NC(=O)Nc1c(O)c2c(n(Cc3ccccc3Cl)c1=O)CCC2)c1ccc(C2CC2)cc1
IC50 [2]: 25 nM

Cc1ccc([C@H](CC(=O)O)NC(=O)Nc2cccn(Cc3cccc(Cl)c3Cl)c2=O)cc1
IC50 (Table 4, 30 minutes at 37° C.): 350 nM

CCOc1cccc(Cl)c1Cn1c2c(c(O)c(NC(=O)N[C@@H](CC(=O)O)c3cccc(OC4CC4)c3)c1=O)CCC2 [(3S)-3-[({[1-(2-chloro-6-ethoxybenzyl)-4-hydroxy-2-oxo-2,5,6,7-tetrahydro-1H-cyclopenta[b]pyridin-3-yl]amino}carbonyl)amino]-3-[3-(cyclopropyloxy)phenyl]propanoic acid]
IC50 [2]: 2 nM

O=C(O)C[C@H](NC(=O)Nc1cccn(Cc2ccccc2Cl)c1=O)c1ccc2c(c1)CCC2
IC50 (Table 4, 30 minutes at 37° C.): 300 nM

CCCOc1cccc([C@H](CC(=O)O)NC(=O)Nc2c(O)c3c(n(Cc4c(C)cccc4Cl)c2=O)CCC3)c1
IC50 [2]: 12 nM

CCCc1cn(Cc2c(Cl)cccc2OC)c(=O)c(NC(=O)N[C@@H](CC(=O)O)c2ccc(OCC)c(OCC)c2)c1O
IC50 (Table 6, 30 minutes at 37° C.): 3 nM

CCCS(=O)(=O)Nc1ccn(Cc2ccccc2Cl)c(=O)c1NC(=O)N[C@@H](CC(=O)O)c1ccc(C)cc1
IC50 (Table 4, 30 minutes at 37° C.): 30 nM

CCOc1ccc([C@H](CC(=O)O)NC(=O)Nc2c(O)c(C3CC3)cn(Cc3ccccc3Cl)c2=O)cc1OCC
IC50 (Table 6, 30 minutes at 37° C.): 6 nM

CCc1ccc([C@H](CC(=O)O)NC(=O)Nc2c(O)c(C)cn(Cc3ccccc3Cl)c2=O)cc1
IC50 [2]: 30 nM

Cc1ccc([C@H](CC(=O)O)NC(=O)Nc2cccn(Cc3ccccc3Cl)c2=O)cc1C
IC50 (Table 4, 30 minutes at 37° C.): 90 nM

Cc1ccc([C@H](CC(=O)O)NC(=O)Nc2c(O)ccn(Cc3ccc(OC(F)(F)F)cc3)c2=O)cc1
IC50 [1]: 25 nM

CCN(CC)c1cccc([C@H](CC(=O)O)NC(=O)Nc2c(O)c(C)cn(Cc3ccccc3Cl)c2=O)c1 [(3S)-3-[({[1-(2-chlorobenzyl)-4-hydroxy-5-methyl-2-oxo-1,2-dihydropyridin-3-yl]amino}carbonyl)amino]-3-[3-(diethylamino)phenyl]propanoic acid]
IC50 [2]: 2 nM

O=C(O)C[C@H](NC(=O)Nc1c(O)c2c(n(Cc3ccccc3Cl)c1=O)CCC2)c1ccc(F)cc1
IC50 [2]: 9 nM

O=C(O)C[C@H](NC(=O)Nc1c(O)c2c(n(Cc3ccccc3Cl)c1=O)CCC2)c1ccc(OC(F)(F)F)cc1
IC50 [2]: 13 nM

O=C(O)C[C@H](NC(=O)Nc1c(O)c2c(n(Cc3ccccc3Cl)c1=O)CCC2)c1cccc(OC(F)(F)F)c1
IC50 [2]: 10 nM

COc1ccc(-c2ccc([C@H](CC(=O)O)NC(=O)Nc3c(O)c(C)cn(Cc4ccccc4Cl)c3=O)cc2)cc1
IC50 [2]: 23 nM

O=C(Nc1cccn(Cc2cccs2)c1=O)NC(c1ccc2c(c1)OCO2)C(F)(F)C(=O)O (stereo not shown) [3-(1,3-benzodioxol-5-yl)-2,2-difluoro-3-[({[2-oxo-1-(2-thiophenylmethyl)-1,2-dihydro-3-pyridinyl]amino}carbonyl)amino]propanoic acid]
IC50 (Table 4, 30 minutes at 37° C.): > 100000 nM

COc1cccc(F)c1Cn1cc(C)c(O)c(NC(=O)N[C@@H](CC(=O)O)c2ccc(C)cc2)c1=O
IC50 (Table 6, 30 minutes at 37° C.): 10 nM

Cc1ccc([C@H](CC(=O)O)NC(=O)Nc2c(O)c(C)cn(Cc3c(Cl)cccc3Cl)c2=O)cc1
IC50 (Table 6, 30 minutes at 37° C.): 20 nM

COc1ccn(Cc2ccccc2Cl)c(=O)c1N(C)C(=O)N[C@@H](CC(=O)O)c1ccc(C)cc1
IC50 [2]: 2000 nM

Cc1cn(Cc2ccccc2Cl)c(=O)c(NC(=O)N[C@@H](CC(=O)O)c2ccc3ccn(C)c3c2)c1O
IC50 [2]: 4 nM

CCOc1cccc([C@H](CC(=O)O)NC(=O)Nc2c(O)c(CC)c(C)n(Cc3c(Cl)cccc3OCC)c2=O)c1
IC50 [2]: 4 nM

Cc1ccc([C@H](CC(=O)O)NC(=O)Nc2cccn(CC(=O)Nc3ccccc3O)c2=O)cc1
IC50 (Table 4, 30 minutes at 37° C.): > 10000 nM

COc1cc([C@H](CC(=O)O)NC(=O)Nc2c(O)c3ccccc3n(Cc3ccccc3Cl)c2=O)ccc1C
IC50 (Table 6, 30 minutes at 37° C.): 14 nM

CCOc1cccc(Cl)c1Cn1c(C)c(CC)c(O)c(NC(=O)N[C@@H](CC(=O)O)c2cccc(OC(C)C)c2)c1=O
IC50 [2]: 5 nM

CCOc1cccc(Cl)c1Cn1c(C)c(CC)c(O)c(NC(=O)N[C@@H](CC(=O)O)c2ccccc2)c1=O
IC50 [2]: 4 nM

Cc1cn(Cc2ccccc2Cl)c(=O)c(NC(=O)N[C@@H](CC(=O)O)c2cccc(O)c2)c1O
IC50 [2]: 9 nM

CCOc1ccc2cc([C@H](CC(=O)O)NC(=O)Nc3c(O)c(C)cn(Cc4c(Cl)cccc4OCC)c3=O)ccc2c1
IC50 [2]: 6 nM

COc1cc(Cl)ccc1Cn1ccc(O)c(NC(=O)N[C@@H](CC(=O)O)c2ccc(C)cc2)c1=O
IC50 [1]: 25 nM

CCCOc1cccc(Cl)c1Cn1cc(C)c(O)c(NC(=O)N[C@@H](CC(=O)O)c2ccc(C)cc2)c1=O
IC50 [2]: 10 nM

CCOc1cccc(Cl)c1Cn1c(C)c(C)c(O)c(NC(=O)N[C@@H](CC(=O)O)c2ccccc2)c1=O
IC50 [2]: 4 nM

Cc1ccc([C@H](CC(=O)O)NC(=O)Nc2c(O)ccn(Cc3cc(C)ccc3C)c2=O)cc1
IC50 [1]: 20 nM

O=C(O)C[C@H](NC(=O)Nc1cccn(Cc2cc(Cl)cc(Cl)c2)c1=O)c1ccc2c(c1)OCO2
IC50 (Table 4, 30 minutes at 37° C.): 5000 nM

COc1ccc([C@H](CC(=O)O)NC(=O)Nc2c(O)ccn(Cc3ccccc3Cl)c2=O)cc1C [(3S)-3-{[({1-[(2-chlorophenyl)methyl]-4-hydroxy-2-oxo-1,2-dihydro-3-pyridinyl}amino)carbonyl]amino}-3-[3-methyl-4-(methyloxy)phenyl]propanoic acid]
IC50 (Table 3, 30 minutes at 37° C.): 8 nM

Cc1ccc([C@H](CC(=O)O)NC(=O)Nc2c(N)ccn(Cc3ccccc3Cl)c2=O)cc1 [(3S)-3-{[({4-amino-1-[(2-chlorophenyl)methyl]-2-oxo-1,2-dihydro-3-pyridinyl}amino)carbonyl]amino}-3-(4-methylphenyl)propanoic acid]
IC50 (Table 3, 30 minutes at 37° C.): 10 nM

Cc1ccc([C@H](CC(=O)O)NC(=O)Nc2c(O)ccn(Cc3ccccc3F)c2=O)cc1 [(3S)-3-{[({1-[(2-fluorophenyl)methyl]-4-hydroxy-2-oxo-1,2-dihydro-3-pyridinyl}amino)carbonyl]amino}-3-(4-methylphenyl)propanoic acid]
IC50 (Table 3, 30 minutes at 37° C.): 30 nM

Cc1ccc([C@H](CC(=O)O)NC(=O)Nc2c(O)c3ccccc3n(Cc3ccccc3Cl)c2=O)cc1C
IC50 (Table 6, 30 minutes at 37° C.): 25 nM

Cc1cn(Cc2ccccc2Cl)c(=O)c(NC(=O)NC(CC(=O)O)c2cccc(N3CCCC3)c2)c1O (stereo not shown)
IC50 [2]: 10 nM

CCOc1ccc(Cl)c(Cl)c1Cn1c2c(c(O)c(NC(=O)N[C@@H](CC(=O)O)c3ccc(C)cc3)c1=O)CCC2
IC50 [2]: 5 nM
